Assay results taken from ChEMBL document CHEMBL1201862, “PubChem BioAssay data set” (2004).
Where “and” joins values, the source holds several entries; their conditions need not be identical. Identical values can stand only once.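 96-well plates; 48 h exposure; 5 concentrations. Endpoints by linear interpolation between flanking doses. Not reached: highest tested concentration assigned. The concentration for 50% growth inhibition is given as GI50.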 Calls of active or inactive are those of the source. No stated cut-off is given here; in the data, active = GI50 up to about 1.1 µM and inactive = higher.

Experiments:
Assay in all cases: NCI-60 cell line screen, 48 h
K562 = system: K562
EKVX = system: EKVX
SNB-75 = system: SNB-75
HT-29 = system: HT-29
HOP-62 = system: HOP-62
ACHN = system: ACHN
COLO 205 = system: COLO 205
UO-31 = system: UO-31
OVCAR-3 = system: OVCAR-3
SF-295 = system: SF-295
A549 = system: A549
RPMI-8226 = system: RPMI-8226
SK-MEL-5 = system: SK-MEL-5
MDA-N = system: MDA-N
SNB-19 = system: SNB-19
SK-MEL-2 = system: SK-MEL-2
TK-10 = system: TK-10
NCI/ADR-RES = system: NCI/ADR-RES
786-0 = system: 786-0
NCI-H522 = system: NCI-H522

| SMILES | GI50 (K562) | GI50 (EKVX) | GI50 (SNB-75) | GI50 (HT-29) | GI50 (HOP-62) | GI50 (ACHN) | GI50 (COLO 205) | GI50 (UO-31) | GI50 (OVCAR-3) | GI50 (SF-295) | GI50 (A549) | GI50 (RPMI-8226) | GI50 (SK-MEL-5) | GI50 (MDA-N) | GI50 (SNB-19) | GI50 (SK-MEL-2) | GI50 (TK-10) | GI50 (NCI/ADR-RES) | GI50 (786-0) | GI50 (NCI-H522) |
| --- | --- | --- | --- | --- | --- | --- | --- | --- | --- | --- | --- | --- | --- | --- | --- | --- | --- | --- | --- | --- |
| NCCCc1nonc1C(=O)O | > 100 µM (inactive) | > 100 µM (inactive) | > 100 µM (inactive) | > 100 µM (inactive) | > 100 µM (inactive) | > 100 µM (inactive) | > 100 µM (inactive) | > 100 µM (inactive) | > 100 µM (inactive) | > 100 µM (inactive) | > 100 µM (inactive) | > 100 µM (inactive) | > 100 µM (inactive) | > 100 µM (inactive) | > 100 µM (inactive) | > 100 µM (inactive) | > 100 µM (inactive) | > 100 µM (inactive) | > 100 µM (inactive) |  |
| CCCCC1=C(C(=O)N2CCOCC2)C2(OCCO2)C1Cl (stereo not given) |  | 47.1 µM (inactive) | 30.2 µM (inactive) | 24.4 µM (inactive) | 35.2 µM (inactive) | 20 µM (inactive) | 23.1 µM (inactive) | 56.6 µM (inactive) |  | 28.1 µM (inactive) | 20.6 µM (inactive) |  | 18.5 µM (inactive) | 14.8 µM (inactive) | 32.3 µM (inactive) | 19.8 µM (inactive) | 29.9 µM (inactive) | 45.9 µM (inactive) | 36.4 µM (inactive) | 27.1 µM (inactive) |
| C=C(C(=O)O)[C@@H]1C[C@@H]2O[C@H]1[C@@H](O)[C@@H](C)CCCC(C)=CCC[C@@]2(C)O |  | > 100 µM (inactive) and > 94.4 µM (inactive) | > 100 µM (inactive) |  | > 100 µM (inactive) | 90.6 µM (inactive) | > 100 µM (inactive) and 72.6 µM (inactive) | > 100 µM (inactive) and 69 µM (inactive) | > 100 µM (inactive) and > 88.7 µM (inactive) | > 100 µM (inactive) | > 100 µM (inactive) |  | > 100 µM (inactive) and > 91.6 µM (inactive) | 59.4 µM (inactive) and 71.1 µM (inactive) | > 100 µM (inactive) | > 100 µM (inactive) | > 100 µM (inactive) and > 52.1 µM (inactive) | > 100 µM (inactive) | 56.6 µM (inactive) and > 69.5 µM (inactive) |  |
| Clc1ccc(C2=CC(c3ccccc3)N3C(=N[C@H]4CCCC[C@@H]43)N2)cc1 (stereo not given in full) | 2.09 µM (inactive) | 4.47 µM (inactive) | 3.48 µM (inactive) | 2.39 µM (inactive) |  | 5.24 µM (inactive) | 1.77 µM (inactive) | 10.8 µM (inactive) | 6.4 µM (inactive) | 7.67 µM (inactive) | 5.47 µM (inactive) | 2.31 µM (inactive) | 1.71 µM (inactive) | 6.05 µM (inactive) | 4.55 µM (inactive) | 13.6 µM (inactive) | 7.5 µM (inactive) | 4.35 µM (inactive) | 2.79 µM (inactive) |  |
| CN(C)c1ccc(C2CC(c3ccc4ccccc4c3O)=NN2c2ccc([N+](=O)[O-])cc2[N+](=O)[O-])cc1 (stereo not given) |  |  | > 100 µM (inactive) | 39.4 µM (inactive) | 75.5 µM (inactive) | > 100 µM (inactive) | 38.7 µM (inactive) | 27.4 µM (inactive) | 22 µM (inactive) | 40.1 µM (inactive) | 32.3 µM (inactive) |  |  | 16.3 µM (inactive) |  | 25.5 µM (inactive) | > 100 µM (inactive) | 43.5 µM (inactive) | > 100 µM (inactive) | 21 µM (inactive) |
| C=C(C)C1CC/C(C)=C/CCC2(C)OC2CC/C(CO)=C\C1O (stereo not given) | 42 µM (inactive) | 91.4 µM (inactive) | 45.7 µM (inactive) | > 100 µM (inactive) | > 100 µM (inactive) | > 100 µM (inactive) | 47.6 µM (inactive) | > 100 µM (inactive) | > 100 µM (inactive) | 40.9 µM (inactive) | > 100 µM (inactive) | 42.4 µM (inactive) |  | > 100 µM (inactive) | > 100 µM (inactive) | > 100 µM (inactive) | > 100 µM (inactive) | > 100 µM (inactive) | > 100 µM (inactive) |  |
| CC(=O)OCC1OC(N2C(=O)CC(N)=Nc3ccccc32)C(OC(C)=O)C(OC(C)=O)C1OC(C)=O (stereo not given) | 32.6 µM (inactive) | 83.2 µM (inactive) | 29.8 µM (inactive) | 53.8 µM (inactive) | 81.7 µM (inactive) | 66.5 µM (inactive) | 15.1 µM (inactive) | > 100 µM (inactive) | 52.6 µM (inactive) | 74 µM (inactive) | > 100 µM (inactive) | 14.4 µM (inactive) | 17 µM (inactive) | 32.7 µM (inactive) | > 100 µM (inactive) | 48.4 µM (inactive) | 75 µM (inactive) | 45.3 µM (inactive) | > 100 µM (inactive) |  |
| CCOC(=O)C1Cc2ccc(C)cc2C1=O (stereo not given) | 31.4 µM (inactive) | > 100 µM (inactive) | > 100 µM (inactive) | > 100 µM (inactive) | > 100 µM (inactive) | > 100 µM (inactive) | > 100 µM (inactive) | 48.6 µM (inactive) | 46.9 µM (inactive) | > 100 µM (inactive) | > 100 µM (inactive) | 41.1 µM (inactive) | 72.1 µM (inactive) | > 100 µM (inactive) |  | > 100 µM (inactive) | > 100 µM (inactive) | 85.1 µM (inactive) | > 100 µM (inactive) |  |
| O=C(O)c1ccc(OCc2nc3cc(C(F)(F)F)ccc3nc2-c2ccccc2)cc1 | 39.4 µM (inactive) | 55.7 µM (inactive) | 17.2 µM (inactive) | 32.1 µM (inactive) | 66.2 µM (inactive) | 30.9 µM (inactive) | 19.8 µM (inactive) | 22 µM (inactive) | 34.8 µM (inactive) | 39.1 µM (inactive) | 39.2 µM (inactive) |  | 32.1 µM (inactive) | 46.1 µM (inactive) | 73.8 µM (inactive) | 37.9 µM (inactive) | 71 µM (inactive) | 44.6 µM (inactive) | 98.4 µM (inactive) | 74.6 µM (inactive) |
| CC(=O)C1C(=O)C(=O)N(c2cccc([N+](=O)[O-])c2)C1=O (stereo not given) |  | > 100 µM (inactive) | > 100 µM (inactive) | > 100 µM (inactive) | > 100 µM (inactive) | > 100 µM (inactive) | > 100 µM (inactive) | > 100 µM (inactive) | > 100 µM (inactive) | > 100 µM (inactive) | > 100 µM (inactive) |  | > 100 µM (inactive) | > 100 µM (inactive) | > 100 µM (inactive) | > 100 µM (inactive) | > 100 µM (inactive) | > 100 µM (inactive) | > 100 µM (inactive) | > 100 µM (inactive) |
| O=C1c2ccccc2-c2oc(=O)c3ccccc3c21 |  | 24.8 µM (inactive) | > 100 µM (inactive) | > 100 µM (inactive) | > 100 µM (inactive) | > 100 µM (inactive) | > 100 µM (inactive) | > 100 µM (inactive) | > 100 µM (inactive) | > 100 µM (inactive) |  | 41.3 µM (inactive) | > 100 µM (inactive) | > 100 µM (inactive) | > 100 µM (inactive) | > 100 µM (inactive) | > 100 µM (inactive) | > 100 µM (inactive) | > 100 µM (inactive) | 0.962 µM (active) |
